In patent US12227500B2, “Substituted pyrrolo[2,3-b]pyridines for suppressing toxic endoplasmic reticulum stress” (THE TRUSTEES OF COLUMBIA UNIVERSITY IN THE CITY OF NEW YORK, priority 2018, dated 2025):

Experiments:
Test in all cases: Radiolabeled ATP kinase assay, panel of 371 kinases (Table S6)
Assay type in all cases: biochemical
[1] = molecular target: T1, panel of 371 human kinases (Homo sapiens, UniProt O00141); conditions: SGK1; 0.1 μM; 10 μM ATP; read-out: % Enzyme Activity (relative to DMSO controls)
T1 construct: purchased Reaction Biology Corp
Excerpt: (§1) ; FIG. 38C). […]. Further targeted analyses, such as genetic knock-down or knock-out, may be warranted to parse the role of these additional kinases in our model of neurodegeneration.

[2] = molecular target: T2, panel of 371 human kinases (Homo sapiens, UniProt O14920); conditions: IKKb/IKBKE; 0.1 μM; 10 μM ATP; read-out: % Enzyme Activity (relative to DMSO controls)
T2 construct: purchased Reaction Biology Corp
Excerpt: as §1

[3] = molecular target: T3, panel of 371 human kinases (Homo sapiens, UniProt O75460); conditions: ERN1/IRE1; 0.1 μM; 10 μM ATP; read-out: % Enzyme Activity (relative to DMSO controls)
T3 construct: purchased Reaction Biology Corp
Excerpt: as §1

[4] = molecular target: T4, panel of 371 human kinases (Homo sapiens, UniProt O95819); conditions: for remaining activity at 0.1 µM: HGK/MAP4K4, 10 μM ATP, read-out: % Enzyme Activity (relative to DMSO controls)
T4 construct: purchased Reaction Biology Corp
Excerpt: as §1

[5] = molecular target: T5, panel of 371 human kinases (Homo sapiens, UniProt P09769); conditions: FGR; 0.1 μM; 10 μM ATP; read-out: % Enzyme Activity (relative to DMSO controls)
T5 construct: purchased Reaction Biology Corp
Excerpt: as §1

[6] = molecular target: T6, panel of 371 human kinases (Homo sapiens, UniProt P24723); conditions: PKCeta; 0.1 μM; 10 μM ATP; read-out: % Enzyme Activity (relative to DMSO controls)
T6 construct: purchased Reaction Biology Corp
Excerpt: as §1

[7] = molecular target: T7, panel of 371 human kinases (Homo sapiens, UniProt P29320); conditions: EPHA3; 0.1 μM; 10 μM ATP; read-out: % Enzyme Activity (relative to DMSO controls)
T7 construct: purchased Reaction Biology Corp
Excerpt: as §1

[8] = molecular target: T8, panel of 371 human kinases (Homo sapiens, UniProt P46734); conditions: MEK3; 0.1 μM; 10 μM ATP; read-out: % Enzyme Activity (relative to DMSO controls)
T8 construct: purchased Reaction Biology Corp
Excerpt: as §1

[9] = molecular target: T9, panel of 371 human kinases (Homo sapiens, UniProt P51955); conditions: NEK2; 0.1 μM; 10 μM ATP; read-out: % Enzyme Activity (relative to DMSO controls)
T9 construct: purchased Reaction Biology Corp
Excerpt: as §1

[10] = molecular target: T10, panel of 371 human kinases (Homo sapiens, UniProt P68400); conditions: CK2a; 0.1 μM; 10 μM ATP; read-out: % Enzyme Activity (relative to DMSO controls)
T10 construct: purchased Reaction Biology Corp
Excerpt: as §1

[11] = molecular target: T11, panel of 371 human kinases (Homo sapiens, UniProt Q02779); conditions: MLK2/MAP3K10; 0.1 μM; 10 μM ATP; read-out: % Enzyme Activity (relative to DMSO controls)
T11 construct: purchased Reaction Biology Corp
Excerpt: as §1

[12] = molecular target: T12, panel of 371 human kinases (Homo sapiens, UniProt Q07002); conditions: CDK18/cyclin Y (PCTK3); 0.1 μM; 10 μM ATP; read-out: % Enzyme Activity (relative to DMSO controls)
T12 construct: purchased Reaction Biology Corp
Excerpt: as §1

[13] = molecular target: T13, panel of 371 human kinases (Homo sapiens, UniProt Q07912); conditions: ACK1; 0.1 μM; 10 μM ATP; read-out: % Enzyme Activity (relative to DMSO controls)
T13 construct: purchased Reaction Biology Corp
Excerpt: as §1

[14] = molecular target: T14, panel of 371 human kinases (Homo sapiens, UniProt Q16513); conditions: PKN2/PRK2; 0.1 μM; 10 μM ATP; read-out: % Enzyme Activity (relative to DMSO controls)
T14 construct: purchased Reaction Biology Corp
Excerpt: as §1

[15] = molecular target: T15, panel of 371 human kinases (Homo sapiens, UniProt Q5TCY1); conditions: TTBK1; 0.1 μM; 10 μM ATP; read-out: % Enzyme Activity (relative to DMSO controls)
T15 construct: purchased Reaction Biology Corp
Excerpt: as §1

[16] = molecular target: T16, panel of 371 human kinases (Homo sapiens, UniProt Q8IY84); conditions: NIM1; 0.1 μM; 10 μM ATP; read-out: % Enzyme Activity (relative to DMSO controls)
T16 construct: purchased Reaction Biology Corp
Excerpt: as §1

[17] = molecular target: T17, panel of 371 human kinases (Homo sapiens, UniProt Q8N752); conditions: CK1a1L; 0.1 μM; 10 μM ATP; read-out: % Enzyme Activity (relative to DMSO controls)
T17 construct: purchased Reaction Biology Corp
Excerpt: as §1

[18] = molecular target: T18, panel of 371 human kinases (Homo sapiens, UniProt Q96L34); conditions: MARK4; 0.1 μM; 10 μM ATP; read-out: % Enzyme Activity (relative to DMSO controls)
T18 construct: purchased Reaction Biology Corp
Excerpt: as §1

[19] = molecular target: T19, panel of 371 human kinases (Homo sapiens, UniProt Q9BYP7); conditions: WNK3; 0.1 μM; 10 μM ATP; read-out: % Enzyme Activity (relative to DMSO controls)
T19 construct: purchased Reaction Biology Corp
Excerpt: as §1

[20] = molecular target: T20, panel of 371 human kinases (Homo sapiens, UniProt Q9H2K8); conditions: TAOK3/JIK; 0.1 μM; 10 μM ATP; read-out: % Enzyme Activity (relative to DMSO controls)
T20 construct: purchased Reaction Biology Corp
Excerpt: as §1

[21] = molecular target: T21, panel of 371 human kinases (Homo sapiens, UniProt Q9H2X6); conditions: HIPK2; 0.1 μM; 10 μM ATP; read-out: % Enzyme Activity (relative to DMSO controls)
T21 construct: purchased Reaction Biology Corp
Excerpt: as §1

[22] = molecular target: T22, panel of 371 human kinases (Homo sapiens, UniProt Q9HAZ1); conditions: CLK4; 0.1 μM; 10 μM ATP; read-out: % Enzyme Activity (relative to DMSO controls)
T22 construct: purchased Reaction Biology Corp
Excerpt: as §1

[23] = molecular target: T23, panel of 371 human kinases (Homo sapiens, UniProt Q9UKE5); conditions: TNIK; 0.1 μM; 10 μM ATP; read-out: % Enzyme Activity (relative to DMSO controls)
T23 construct: purchased Reaction Biology Corp
Excerpt: as §1

[24] = molecular target: T24, panel of 371 human kinases (Homo sapiens, UniProt Q9Y243); conditions: AKT3; 0.1 μM; 10 μM ATP; read-out: % Enzyme Activity (relative to DMSO controls)
T24 construct: purchased Reaction Biology Corp
Excerpt: as §1

T4 sequence (O95819 whole entry): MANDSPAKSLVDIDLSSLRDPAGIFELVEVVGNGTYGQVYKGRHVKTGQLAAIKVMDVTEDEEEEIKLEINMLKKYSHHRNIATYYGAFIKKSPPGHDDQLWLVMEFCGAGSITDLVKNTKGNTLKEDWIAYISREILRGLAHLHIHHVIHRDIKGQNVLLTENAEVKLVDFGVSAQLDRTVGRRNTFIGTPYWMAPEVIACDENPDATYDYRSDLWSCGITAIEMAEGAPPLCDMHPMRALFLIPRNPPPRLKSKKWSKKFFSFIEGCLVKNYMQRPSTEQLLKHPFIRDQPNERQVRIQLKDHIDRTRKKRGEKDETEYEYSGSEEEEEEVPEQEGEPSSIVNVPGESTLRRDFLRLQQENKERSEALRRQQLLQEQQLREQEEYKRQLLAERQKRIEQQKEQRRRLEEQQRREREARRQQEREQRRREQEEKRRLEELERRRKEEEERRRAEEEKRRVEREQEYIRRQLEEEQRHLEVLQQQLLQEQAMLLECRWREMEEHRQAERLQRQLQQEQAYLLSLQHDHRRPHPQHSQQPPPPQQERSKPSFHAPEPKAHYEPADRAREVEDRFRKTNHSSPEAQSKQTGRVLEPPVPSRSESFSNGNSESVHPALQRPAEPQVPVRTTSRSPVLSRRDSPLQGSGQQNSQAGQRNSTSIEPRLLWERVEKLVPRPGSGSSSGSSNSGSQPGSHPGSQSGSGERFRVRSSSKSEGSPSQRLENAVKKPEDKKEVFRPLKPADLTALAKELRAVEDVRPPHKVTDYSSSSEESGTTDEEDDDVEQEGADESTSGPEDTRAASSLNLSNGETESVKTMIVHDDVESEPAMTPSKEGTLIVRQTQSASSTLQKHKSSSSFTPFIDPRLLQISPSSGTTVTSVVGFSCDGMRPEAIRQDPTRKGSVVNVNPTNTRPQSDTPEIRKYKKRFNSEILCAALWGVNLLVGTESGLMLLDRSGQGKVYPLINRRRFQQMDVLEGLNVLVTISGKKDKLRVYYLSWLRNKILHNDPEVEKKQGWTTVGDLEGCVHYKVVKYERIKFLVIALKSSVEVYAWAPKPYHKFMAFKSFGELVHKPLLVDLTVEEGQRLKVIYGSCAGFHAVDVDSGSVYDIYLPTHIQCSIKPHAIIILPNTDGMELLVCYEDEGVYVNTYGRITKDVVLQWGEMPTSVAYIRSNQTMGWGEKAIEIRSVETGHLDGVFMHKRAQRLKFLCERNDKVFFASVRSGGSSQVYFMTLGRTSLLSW
T11 sequence (Q02779 whole entry): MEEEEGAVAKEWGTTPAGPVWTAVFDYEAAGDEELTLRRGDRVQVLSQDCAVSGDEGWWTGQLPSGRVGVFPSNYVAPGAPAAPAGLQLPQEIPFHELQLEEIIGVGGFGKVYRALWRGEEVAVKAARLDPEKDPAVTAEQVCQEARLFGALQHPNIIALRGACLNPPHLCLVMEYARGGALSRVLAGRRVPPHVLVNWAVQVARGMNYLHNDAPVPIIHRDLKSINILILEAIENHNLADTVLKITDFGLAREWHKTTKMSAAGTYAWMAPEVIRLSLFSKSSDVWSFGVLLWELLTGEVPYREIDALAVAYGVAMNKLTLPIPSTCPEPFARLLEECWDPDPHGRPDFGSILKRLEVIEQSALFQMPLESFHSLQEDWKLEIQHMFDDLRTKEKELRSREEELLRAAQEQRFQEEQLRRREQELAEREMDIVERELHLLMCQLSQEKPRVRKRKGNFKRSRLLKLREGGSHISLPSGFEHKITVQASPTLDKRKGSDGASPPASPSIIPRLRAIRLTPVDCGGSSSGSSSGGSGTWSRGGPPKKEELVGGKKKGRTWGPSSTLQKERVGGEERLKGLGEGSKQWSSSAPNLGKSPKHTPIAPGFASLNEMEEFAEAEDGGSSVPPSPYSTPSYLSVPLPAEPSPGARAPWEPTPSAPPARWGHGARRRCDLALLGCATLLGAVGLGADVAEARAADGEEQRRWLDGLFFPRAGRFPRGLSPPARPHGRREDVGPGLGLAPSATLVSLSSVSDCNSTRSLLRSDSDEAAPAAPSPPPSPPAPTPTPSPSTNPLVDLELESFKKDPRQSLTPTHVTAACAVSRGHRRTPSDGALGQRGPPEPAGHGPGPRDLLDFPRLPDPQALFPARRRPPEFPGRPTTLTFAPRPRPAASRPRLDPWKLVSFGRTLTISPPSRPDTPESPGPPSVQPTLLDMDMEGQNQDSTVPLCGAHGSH
T20 sequence (Q9H2K8 whole entry): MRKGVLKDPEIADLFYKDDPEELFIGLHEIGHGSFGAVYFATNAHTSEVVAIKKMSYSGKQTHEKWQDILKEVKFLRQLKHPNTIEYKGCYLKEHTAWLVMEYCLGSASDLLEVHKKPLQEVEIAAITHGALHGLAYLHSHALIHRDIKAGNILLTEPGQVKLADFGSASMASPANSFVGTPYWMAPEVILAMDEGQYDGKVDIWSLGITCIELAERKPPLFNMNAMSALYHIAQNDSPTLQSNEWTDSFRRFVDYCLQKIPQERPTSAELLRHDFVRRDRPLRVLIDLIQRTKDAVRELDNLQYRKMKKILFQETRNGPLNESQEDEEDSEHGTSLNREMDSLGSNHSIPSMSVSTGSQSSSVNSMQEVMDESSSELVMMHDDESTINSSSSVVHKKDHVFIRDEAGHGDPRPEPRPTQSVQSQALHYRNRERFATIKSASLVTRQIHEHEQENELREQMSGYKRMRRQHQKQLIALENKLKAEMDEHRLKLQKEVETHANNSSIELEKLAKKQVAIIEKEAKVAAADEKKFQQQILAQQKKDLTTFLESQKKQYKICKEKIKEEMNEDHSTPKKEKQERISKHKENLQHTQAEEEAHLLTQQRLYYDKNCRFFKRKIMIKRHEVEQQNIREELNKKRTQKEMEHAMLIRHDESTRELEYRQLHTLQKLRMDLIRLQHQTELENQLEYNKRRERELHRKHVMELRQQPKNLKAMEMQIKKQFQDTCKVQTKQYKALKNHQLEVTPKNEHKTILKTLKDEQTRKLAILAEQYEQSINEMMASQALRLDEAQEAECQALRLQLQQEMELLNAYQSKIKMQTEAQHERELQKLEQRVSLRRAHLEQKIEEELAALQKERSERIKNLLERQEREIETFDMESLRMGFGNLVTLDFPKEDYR
T15 sequence (Q5TCY1 whole entry): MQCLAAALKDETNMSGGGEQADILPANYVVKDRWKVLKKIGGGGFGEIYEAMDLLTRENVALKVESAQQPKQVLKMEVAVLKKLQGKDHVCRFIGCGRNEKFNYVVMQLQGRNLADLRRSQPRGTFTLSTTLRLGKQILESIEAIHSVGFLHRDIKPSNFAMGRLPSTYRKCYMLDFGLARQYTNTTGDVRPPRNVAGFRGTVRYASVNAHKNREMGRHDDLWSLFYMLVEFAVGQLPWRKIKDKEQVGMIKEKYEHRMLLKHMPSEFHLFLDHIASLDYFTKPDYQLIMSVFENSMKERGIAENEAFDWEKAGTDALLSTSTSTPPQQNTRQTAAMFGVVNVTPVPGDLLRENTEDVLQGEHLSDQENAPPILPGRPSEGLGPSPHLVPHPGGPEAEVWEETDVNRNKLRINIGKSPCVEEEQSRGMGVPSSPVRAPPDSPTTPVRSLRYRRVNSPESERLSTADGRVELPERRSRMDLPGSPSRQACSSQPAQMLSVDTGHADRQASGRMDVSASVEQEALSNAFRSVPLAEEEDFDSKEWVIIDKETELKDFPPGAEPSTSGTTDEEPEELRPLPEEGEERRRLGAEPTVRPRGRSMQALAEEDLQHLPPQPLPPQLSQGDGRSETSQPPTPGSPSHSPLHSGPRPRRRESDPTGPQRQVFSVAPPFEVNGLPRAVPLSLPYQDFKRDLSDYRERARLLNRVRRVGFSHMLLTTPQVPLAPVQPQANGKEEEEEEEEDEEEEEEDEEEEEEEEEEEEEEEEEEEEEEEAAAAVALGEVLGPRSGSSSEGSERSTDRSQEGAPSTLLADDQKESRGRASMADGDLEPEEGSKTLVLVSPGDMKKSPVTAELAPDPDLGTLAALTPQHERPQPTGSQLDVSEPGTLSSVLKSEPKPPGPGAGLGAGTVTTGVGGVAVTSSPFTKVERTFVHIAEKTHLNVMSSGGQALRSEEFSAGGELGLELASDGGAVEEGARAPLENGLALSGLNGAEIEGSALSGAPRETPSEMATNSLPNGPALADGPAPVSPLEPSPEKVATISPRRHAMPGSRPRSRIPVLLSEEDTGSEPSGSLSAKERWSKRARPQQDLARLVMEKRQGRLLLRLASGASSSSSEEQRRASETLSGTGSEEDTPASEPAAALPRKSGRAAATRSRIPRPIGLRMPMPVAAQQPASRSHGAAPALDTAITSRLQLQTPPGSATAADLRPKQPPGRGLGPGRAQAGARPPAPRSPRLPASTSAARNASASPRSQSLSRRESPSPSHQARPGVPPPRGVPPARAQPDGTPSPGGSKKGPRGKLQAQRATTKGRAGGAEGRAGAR
T22 sequence (Q9HAZ1 whole entry): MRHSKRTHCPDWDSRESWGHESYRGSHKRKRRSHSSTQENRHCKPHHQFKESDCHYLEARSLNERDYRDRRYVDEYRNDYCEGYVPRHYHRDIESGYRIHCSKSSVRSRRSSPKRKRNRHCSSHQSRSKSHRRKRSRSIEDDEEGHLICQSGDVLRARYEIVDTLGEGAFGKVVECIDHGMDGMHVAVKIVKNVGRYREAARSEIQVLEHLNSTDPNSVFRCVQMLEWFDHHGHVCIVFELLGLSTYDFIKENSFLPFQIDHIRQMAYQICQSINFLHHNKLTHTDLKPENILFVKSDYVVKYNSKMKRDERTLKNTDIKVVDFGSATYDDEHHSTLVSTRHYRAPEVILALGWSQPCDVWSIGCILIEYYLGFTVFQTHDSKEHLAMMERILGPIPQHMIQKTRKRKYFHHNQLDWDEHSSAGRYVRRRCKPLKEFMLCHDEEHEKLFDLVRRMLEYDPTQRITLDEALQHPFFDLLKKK

## CN1CCN(Cc2ccc(-c3cnc4[nH]cc(-c5ccc6[nH]ccc6c5)c4c3)cc2)CC1 [Compound 1, 3-(1H-Indol-5-yl)-5-(4-((4-methylpiperazin-1-yl)methyl)phenyl)-1H-pyrrolo[2,3-b]pyridine, reference compound]
[1]
  remaining activity at 0.1 µM: 96%
[2]
  remaining activity at 0.1 µM: 81.3%
[3]
  remaining activity at 0.1 µM: 107%
[4]
  remaining activity at 0.1 µM: 20.2%
[5]
  remaining activity at 0.1 µM: 97.2%
[6]
  remaining activity at 0.1 µM: 103%
[7]
  remaining activity at 0.1 µM: 99.8%
[8]
  remaining activity at 0.1 µM: 101%
[9]
  remaining activity at 0.1 µM: 96.2%
[10]
  remaining activity at 0.1 µM: 100%
[11]
  remaining activity at 0.1 µM: 84.1%
[12]
  remaining activity at 0.1 µM: 90.3%
[13]
  remaining activity at 0.1 µM: 87.3%
[14]
  remaining activity at 0.1 µM: 81.6%
[15]
  remaining activity at 0.1 µM: 111%
[16]
  remaining activity at 0.1 µM: 106%
[17]
  remaining activity at 0.1 µM: 94.8%
[18]
  remaining activity at 0.1 µM: 76%
[19]
  remaining activity at 0.1 µM: 93.7%
[20]
  remaining activity at 0.1 µM: 87.3%
[21]
  remaining activity at 0.1 µM: 110%
[22]
  remaining activity at 0.1 µM: 94.5%
[23]
  remaining activity at 0.1 µM: 5.84%
[24]
  remaining activity at 0.1 µM: 98.4%

## OCCN1CCN(Cc2ccc(-c3cnc4[nH]cc(-c5cccc(Cl)c5)c4c3)cc2)CC1 [Compound 12k, 2-(4-(4-(3-(3-Chlorophenyl)-1H-pyrrolo[2,3-b]pyridin-5-yl)benzyl)piperazin-1-yl)ethan-1-ol]
[1]
  remaining activity at 0.1 µM: 99.6%
[2]
  remaining activity at 0.1 µM: 84.1%
[3]
  remaining activity at 0.1 µM: 98.9%
[4]; 0.025 μM
  fold change in HGK activity following 12k exposure relative to 1: 14.92 fold
[4]
  remaining activity at 0.1 µM: 1.35%
[5]
  remaining activity at 0.1 µM: 84.2%
[6]
  remaining activity at 0.1 µM: 94.6%
[7]
  remaining activity at 0.1 µM: 98.2%
[8]
  remaining activity at 0.1 µM: 99.7%
[9]
  remaining activity at 0.1 µM: 92%
[10]
  remaining activity at 0.1 µM: 110%
[11]
  remaining activity at 0.1 µM: 73.1%
[12]
  remaining activity at 0.1 µM: 77.5%
[13]
  remaining activity at 0.1 µM: 93.6%
[14]
  remaining activity at 0.1 µM: 59.5%
[15]
  remaining activity at 0.1 µM: 106%
[16]
  remaining activity at 0.1 µM: 105%
[17]
  remaining activity at 0.1 µM: 107%
[18]
  remaining activity at 0.1 µM: 40%
[19]
  remaining activity at 0.1 µM: 82.2%
[20]
  remaining activity at 0.1 µM: 79.8%
[21]
  remaining activity at 0.1 µM: 95.7%
[22]
  remaining activity at 0.1 µM: 71.9%
[23]
  remaining activity at 0.1 µM: -0.01%
[24]
  remaining activity at 0.1 µM: 97.2%
